{
  "source": "paper PMC4323000",
  "about": "(Oncotarget, 2015)",
  "key": {"[1]": {"conditions": "cited from earlier work"}, "[2]": {"test": "Pharmacokinetic study of MBL-II-141, CPT-11 and SN-38 (blood, liver, brain; LC-MS/MS)", "description": "In order to achieve possible cumulative effects, reiterated administrations (two or three) were carried out with a 4 h time interval between administrations. Blood samples were collected at either 1 h or 4 h after the last injection.\nTotal blood samples were collected using dried heparinized syringes, avoiding modification of samples. Blood and plasma were stored at −80°C. […] Tissues were crushed using a dried cold system.\nBoth assays were performed on a C18 column HypersilGold, (ThermoElectron), 3.0 μm, (100 mm × 2.1 mm i.d.). The mass spectrometry analysis was performed in positive ion mode with electrospray source. […] A volume of 50 μL of whole blood or tissue solution was introduced into a conic centrifuge and 50 μL of solution of the internal standard and 300 μL of cold acetonitrile were added. The sample was mixed and centrifuged for 10 min at 13000 g at 5°C. […] The residues were resuspended in 100 μL of mobile phase and 10 μL were injected into the HPLC device. […] When the concentration was over the upper standard concentration, a dilution of the sample was performed using blank whole blood or appropriate tissues. Peak area ratios of compound to the respective internal standard measured at each nominal concentration were used to construct weighted (1/concentration) least-square linear regression curves. […] Results in tissues were normalized to cellular protein content. Results in tissues were normalized to cellular protein content (C1600 Abott technology)."}, "ABCG2 [3]": {"system": "ABCG2", "conditions": "ref per compound in Table 2; cited from earlier work"}, "[4]": {"design": "method as in PMID 23150210", "conditions": "P.O.; ref [25]; cited from earlier work"}, "[5]": {"system": "ABCG2-overexpressing tumors", "conditions": "ref per compound in Table 2; cited from earlier work"}, "[6]": {"conditions": "cited from earlier work", "remark": "listed apart in the source"}, "ABCG2 [7]": {"system": "ABCG2", "conditions": "read-out: In vitro Inhibition (IC50), cited from earlier work"}, "[8]": {"conditions": "oral, ref per compound in Table 2"}},
  "note": "Entries after “also recorded” stand apart in the source; their conditions may differ. Read-outs that look alike come from different tables or passages of the source.",
  "data": [
    {"molecule": "CCc1c2c(nc3ccc(O)cc13)-c1cc3c(c(=O)n1C2)COC(=O)[C@]3(O)CC", "note": "[SN-38]", "values": [
      {"measurement": "SN-38 plasma levels lower than CPT-11", "setting": "[1]; ICR mice, 1 h after the injection", "result": 27, "unit": "fold"},
      {"measurement": "Liver/Plasma ratio, fold-change induced by the combination treatment", "setting": "[2]; 30 min", "result": 0.9, "unit": "fold-change"},
      {"measurement": "Liver/Plasma ratio, fold-change induced by the combination treatment", "setting": "[2]; 60 min", "result": 0.6, "unit": "fold-change"},
      {"measurement": "Liver/Plasma ratio, fold-change induced by the combination treatment", "setting": "[2]; 120 min", "result": 1.1, "unit": "fold-change"},
      {"measurement": "Liver/Plasma ratio, fold-change induced by the combination treatment", "setting": "[2]; 240 min", "result": 1.0, "unit": "fold-change"},
      {"measurement": "Liver/Plasma ratio, fold-change induced by the combination treatment", "setting": "[2]; 480 min", "result": 1.0, "unit": "fold-change"},
      {"measurement": "change of SN-38 blood levels in the presence of MBL-II-141", "setting": "[2]; CPT-11 20 mg/kg + MBL-II-141 10 mg/kg IP", "result": "increased; also recorded: strongly increased"},
      {"measurement": "difference between CPT-11 and SN-38 levels (SN-38 lower)", "setting": "[2]; SCID mice", "result": 19, "unit": "fold"},
      {"measurement": "time until which detected in blood", "setting": "[2]; SN-38 after CPT-11 20 mg/kg IP", "result": 6, "unit": "h"},
      {"measurement": "SN-38 levels in the brain", "setting": "[2]; after CPT-11 20 mg/kg IP, with or without MBL-II-141", "result": "below the limits of quantification; also recorded: under the limit of detection"},
      {"measurement": "Mean of differences in Blood levels, compound alone versus CPT-11 + MBL-II-141", "setting": "[2]; paired t-test over time, P (two tailed): CPT-11 0.3616, SN-38 0.0299, MBL-II-141 0.1555", "result": -109.6},
      {"measurement": "Mean of differences in Liver levels, compound alone versus CPT-11 + MBL-II-141", "setting": "[2]; paired t-test over time, P (two tailed): CPT-11 0.6878, SN-38 0.1727, MBL-II-141 0.1046", "result": -12.65}
    ]},
    {"molecule": "CNC(=O)c1cc(Oc2ccc(NC(=O)Nc3ccc(Cl)c(C(F)(F)F)c3)cc2)ccn1", "note": "[Sorafenib]", "values": [
      {"measurement": "In vitro ABCG2 Specificity", "setting": "ABCG2 [3]", "result": "No"},
      {"measurement": "In vivo Toxicity, Chronic", "setting": "[4]", "result": "> 25", "unit": "mg/kg P.O."},
      {"measurement": "In vivo Impact on Tumor growth", "setting": "[5]", "result": "Yes"},
      {"measurement": "In vivo Toxicity, Acute", "setting": "[6]; [8]", "result": "> 25", "unit": "mg/kg oral"}
    ]},
    {"molecule": "CSc1nc2cc(Cl)c(Oc3cccc(Cl)c3Cl)cc2[nH]1", "note": "[Triclabendazole]", "values": [
      {"measurement": "IC50", "setting": "ABCG2 [7]; substrate Mitoxantrone, ref [13],[21],[35],[45]–[48] (GF120918), [7] (Triclabendazole)", "result": "~10", "unit": "µM"},
      {"measurement": "In vivo Toxicity, Acute", "setting": "[6]; I.P., ref per compound in Table 2", "result": "> 100", "unit": "mg/kg I.P."},
      {"measurement": "In vivo Impact on Pharmacokinetics", "setting": "[1]; of Nitrofurantoin, ref [7]", "result": "Nitrofurantoin: Yes"}
    ]},
    {"molecule": "COc1ccc(/C(C#N)=C/c2ccc(N3CCC(O)CC3)s2)cc1OC", "note": "[YHO-13177]", "values": [
      {"measurement": "In vitro ABCG2 Specificity", "setting": "ABCG2 [3]", "result": "Yes"},
      {"measurement": "In vivo Impact on Tumor growth", "setting": "[5]", "result": "Yes"},
      {"measurement": "IC50", "setting": "ABCG2 [7]; substrate Hoechst 3342, ref [6],[24],[49] (Ko143), [40] (YHO-13177)", "result": "~0.3", "unit": "µM"},
      {"measurement": "In vivo Toxicity, Acute", "setting": "[6]; I.V., ref [13],[21],[35],[45]–[48] (GF120918), [40] (YHO-13177)", "result": "> 30", "unit": "mg/kg I.V."},
      {"measurement": "In vivo Toxicity, Acute", "setting": "[6]; [8]", "result": "> 200", "unit": "mg/kg oral"}
    ]}
  ]
}
